From US7527812B2, “Herbal composition for treating cancer” (Sheng Foong Pharmaceutical Co., Ltd., priority 2005, dated 2009)

Tests used:
Type in all cases: cell-based
[1] = tested on: A-498 kidney carcinoma cells; experiment: in vitro cytotoxicity assay (MTS), A498; conditions: Homo sapiens, A498, 72 hours exposure, read-out: IC50 (concentration that inhibits 50% of cell growth)
From the text: (§1) To examine the effects of the present composition SF-01 on inhibition of cancer/tumor cells, various human cell lines were used, including one normal cell line and eight cancer/tumor cell lines: • 1. RPTEC (Cambrex): Normal renal proxima tubule epithelial cell, Human • 2. A-498 (ATCC HTB-44): Kidney carcinoma, Human • 3. HCT 116 (ATCC CCL-247): Colorectal carcinoma, Human • 4. Hep 3B (ATCC HB-8064): Hepatocellular carcinoma, Human • 5. LNCap clone FGC (ATCC CRL-1740): Prostate carcinoma, Human • 6. MCF-7 (ATCC HTB-22): Mammary gland adenocarcinoma, Human • 7. MKN45 (FDSC JCRB0245): Stomach carcinoma, Human • 8. NCI-H226 (ATCC CRL-5826): Lung carcinoma, Human • 9. NPC-TW01 (School of Medicine, NTU): Nasal-pharyngeal carcinoma, Human […]
(§2) To evaluate the antitumoral activity of SF-01 towards various human cancer cell lines and measure the potential cytotoxicity of SF-01 towards the primary human renal cell lines (RPTEC), an in vitro cytotoxicity assay was carried out. […] To quantify the metabolically viable cells, the conversion of MTS to formazan was measured by absorbance at 490 nm in a 96-well microtiter plate reader. […] The percentage of cytostasis was calculated by the formula: Cytostasis (%)=[1−(B/A)]×100, where A is the absorbance of the untreated control and B is the absorbance of the treated cell. […]

[2] = tested on: HCT 116 colorectal carcinoma cells; experiment: in vitro cytotoxicity assay (MTS), HCT 116; conditions: Homo sapiens, HCT 116, 72 hours exposure, read-out: IC50 (concentration that inhibits 50% of cell growth)
From the text: as §1, §2

[3] = tested on: Hep 3B hepatocellular carcinoma cells; experiment: in vitro cytotoxicity assay (MTS), Hep 3B; conditions: Homo sapiens, Hep3B, 72 hours exposure, read-out: IC50 (concentration that inhibits 50% of cell growth)
From the text: as §1, §2

[4] = tested on: LNCaP clone FGC prostate carcinoma cells; experiment: in vitro cytotoxicity assay (MTS), LNCaP clone FGC; conditions: Homo sapiens, 72 hours exposure, read-out: IC50 (concentration that inhibits 50% of cell growth)
From the text: as §1, §2

[5] = tested on: MCF-7 mammary gland adenocarcinoma cells; experiment: in vitro cytotoxicity assay (MTS), MCF-7; conditions: Homo sapiens, MCF7, MCF-7, 72 hours exposure, read-out: IC50 (concentration that inhibits 50% of cell growth)
From the text: as §1, §2

[6] = tested on: MKN45 stomach carcinoma cells; experiment: in vitro cytotoxicity assay (MTS), MKN45; conditions: Homo sapiens, MKN-45, MKN45, 72 hours exposure, read-out: IC50 (concentration that inhibits 50% of cell growth)
From the text: as §1, §2

[7] = tested on: NCI-H226 lung carcinoma cells; experiment: in vitro cytotoxicity assay (MTS), NCI-H226; conditions: Homo sapiens, NCI-H226, 72 hours exposure, read-out: IC50 (concentration that inhibits 50% of cell growth)
From the text: as §1, §2

[8] = tested on: NPC-TW01 nasal-pharyngeal carcinoma cells; experiment: in vitro cytotoxicity assay (MTS), NPC-TW01; conditions: Homo sapiens, NPC-TW01, 72 hours exposure, read-out: IC50 (concentration that inhibits 50% of cell growth)
From the text: as §1, §2

[9] = tested on: RPTEC normal renal proximal tubule epithelial cells; experiment: in vitro cytotoxicity assay (MTS), normal cell RPTEC; conditions: Homo sapiens, 72 hours exposure, read-out: IC50 (concentration that inhibits 50% of cell growth)
From the text: as §1, §2

[10] = tested on: various human tumor cell lines; experiment: in vitro cytotoxicity assay (MTS), span over the tumor cell lines; conditions: span over the eight tumor cell lines, 72 hours exposure
From the text: as §1, §2

Row | Compound | IC50 [1] [nM] | IC50 [2] [nM] | IC50 [3] [nM] | IC50 [4] [nM] | IC50 [5] [nM] | IC50 [6] [nM] | IC50 [7] [nM] | IC50 [8] [nM] | IC50 [9] [nM] | IC50 to various human tumor cell lines (span over the lines) [10] [nM]
1 | COc1cccc2c1C(=O)c1c(O)c3c(c(O)c1C2=O)C[C@@](O)(C(=O)CO)C[C@@H]3O[C@H]1C[C@H](N)[C@H](O)[C@H](C)O1 [Doxorubicin] | 782 | 33 | 116 | 14 | 70 | 58 | 123 | 11 | 3180 | 800 to 11
2 | CC(=O)O[C@H]1C(=O)[C@@]2(C)[C@H]([C@H](OC(=O)c3ccccc3)[C@]3(O)C[C@H](OC(=O)[C@H](O)[C@@H](NC(=O)c4ccccc4)c4ccccc4)C(C)=C1C3(C)C)[C@]1(OC(C)=O)CO[C@@H]1C[C@@H]2O [Taxol] | 11.1 | < 0.0256 | 0.0256 | < 0.0256 | < 0.0256 | 0.0256 | < 0.64 | < 0.0256 | 406 | 11 to 0.003
